Measured values published in ChEMBL document CHEMBL5726780, “Fused tricyclic compounds as Raf kinase inhibitors” (2018).

Assay: Time-Resolved Fluorescence Energy Transfer Assay: Compounds disclosed herein were tested against B-Raf (V600E) (PV3849, from Invitrogen) or C-Raf (Y340D/Y341D) (PV3805, from Invitrogen) in a time-resolved fluorescence energy transfer assay. The assay was carried out in reactions (10 μL) containing 0.0625 nM B-Raf or 0.5 nM C-Raf, 25 mM Tris pH7.4, 10 mM MgCl2, 0.5 mM EGTA, 0.5 mM […], 5 mM beta-glycerophosphate, 0.01% Triton X-100, 2.5 mM DTT, 0.1% BSA, 0.1 mM ATP, 13.7 nM GST-tagged MEK1 (Full-length protein with K97R mutation, recombinant protein purified from bacterial expression system) and 0-5 μM compounds disclosed herein (final concentration of 1% DMSO). The enzyme was incubated with the compounds at room temperature for 60 minutes and the reactions were initiated by the addition of ATP and GST-MEK1. After incubating at room temperature for 60 minutes, an equal volume of stop buffer containing 25 mM Tris pH7.4, 400 mM KF, 50 mM EDTA, 0.01% BSA, 0.01% Triton X-100, 1 test of Eu3+ Cryptate-conjugated rabbit polyclonal antibody anti-Phospho MEK1/2 (Ser217/221) and 1 test of d2-conjugated mouse monoclonal antibody anti-glutathione S-transferase was added to stop the reactions. Plates were sealed and incubated at room temperature for 2 hours, and then the TR-FRET signals were read on BMG PHERAstar FS instrument.

Row | SMILES | IC50
1 | O=C1CCc2c(Oc3ccc4c(c3)C3C(O4)C3c3nc4ccc(Br)cc4[nH]3)ccnc2N1 (centres undefined) | 81 nM
2 | O=C1CCc2c(Oc3ccc4c(c3)C3C(C4)C3C(=O)Nc3ccccc3S)ccnc2N1 (centres undefined) | 5.5 nM
3 | CNC(=O)Nc1cc(Oc2ccc3c(c2)C2C(O3)C2c2nc3ccc(C(F)(F)F)cc3[nH]2)ccn1 (centres undefined) | 6.5 nM
4 | O=C1CCc2c(Oc3ccc4c(c3)C3C(O4)C3C(=O)OCC(=O)c3ccccc3)ccnc2N1 (centres undefined) | < 0.25 nM
